Consider one substance from patent US20050080045A1, “Composition comprising dextrinsulfate for the treatment of sexual transmitted diseases (std)” (priority 2001, published 2005).

Experiment [1] relates to HSV-1. Put plainly: HSV plaque reduction assay in Vero cells (HSV-1). The experiment is classed as cell-based, Herpes Simplex Virus. Particulars: mean of two determinations. As to the method:
(§1) Dextrin sulphate was added to the cell culture and then removed following an incubation period. Virus was then added as it is thought that dextrin sulphate attaches to cell receptors, thereby blocking subsequent viral entry. Following incubation with virus, dextrin sulphate in carboxylmethyl cellulose was added. This medium was used to form a gel layer to prevent any intracellular virus (that has bypassed the dextrin sulphate-cell receptor blocking interaction) from further infecting other cells.
(§2) • (i) Seed 24 well cell culture plates with Vero cells (2×10^5 cells/ml/well). Prepare one plate per virus plus 2 plates for controls. • (ii) Grow cells to confluency overnight at 37° in 5% CO2. • (iii) Dilute virus as calculated to give about 100 plaques per well, a minimum volume of 5 ml per plate.
Plate Layout. Dextrin sulphate (D.S.) concentrations are in mg per ml.
• (iv) Pipette cell medium off all wells except the cell control wells. • (v) Inoculate the appropriate well with 1 ml Dextrin sulphate made up in Minimum Essential Medium as per above layout. • (vi) Incubate the plate at 37° C. in CO2 incubator for 1 hour. • (vii) Remove Dextrin sulphate. • (viii) Inoculate 200 μl of virus dilution per well. • (ix) Incubate the plate at 37° C. in CO2 incubator for 1 hour. • (x) Add 1 ml Dextrin sulphate in CMC to appropriate wells, incubate the plates at 37° C. in CO2 incubator for 60 hours. • (xi) Fix with 10% formalin in PBS by topping up the wells, leave for a minimum of 1 hour. • (xii) Decant formalin, rinse plate in water, stain with crystal violet for 5-10 mins, rinse and drain. Leave plates to dry before counting.
(xiii) Count plaques, calculate IC50 by Grafit.
A general note: Plaque reduction counts the foci of infection that form in a cell layer.

Experiment [2] deals with HSV-2. Put plainly: HSV plaque reduction assay in Vero cells (HSV-2). The experiment is classed as cell-based, Herpes Simplex Virus. To be noted: mean of two determinations. As to the method: as §1, §2
Plate Layout. Dextrin sulphate (D.S.) concentrations are in mg per ml. […]

Experiment [3] deals with Chlamydia trachomatis Sa2f strain. Put plainly: Chlamydia trachomatis cell culture assay (inclusion bodies in McCoy cell monolayers). The experiment is classed as cell-based. On the procedure: McCoy cell monolayers were prepared on coverslips in plastic Bijoux. Cells were infected with Chlamydia trachomatis either alone or in the presence of dextrin sulphate. The Sa2f strain of C. trachomatis was used. Sa2f, which causes lymphogranuloma venereum, is similar to C. trachomatis. It is a heavily passaged laboratory strain which can infect McCoy cells without the need for spinning (for most strains of C. trachomatis, it is necessary to spin the cells onto the monolayers in the presence of cyclohexamide in order for infection of the monolayers to occur).
After incubation, coverslips were fixed and stained for C. trachomatis. The number of inclusion bodies per coverslip was estimated by fluorescence microscopy.

As to dextrin sulphate, the IC50 amounted to 0.91 mg/mL in experiment [1] (DM-21, Laboratory HSB-1 ACV resistant); 2.77 mg/mL in experiment [1] (HSV-1 ACV resistant); 1.13 mg/mL in experiment [1] (HSV-1 ACV sensitive); 0.33 mg/mL in experiment [1] (SC-16, Laboratory HSV-1 ACV sensitive); 0.004 mg/mL in experiment [2] (HSV-2 ACV resistant); 0.11 mg/mL in experiment [2] (HSV-2 ACV sensitive). Besides, the “Inhibition (Expt. 2.1.1)” value in experiment [3] (Sa2f preincubated with dextrin sulphate before infecting the cell line) is on record as “inhibition by dextrin”. Further, the “Inhibition (Expt. 2.1.2)” value in experiment [3] (dextrin sulphate preincubated with the cell line before infection with Sa2f) is “inhibition by dextrin”. Besides, in experiment [3] (larger infecting doses of Sa2f (400 inclusion bodies in 30 fields)), the “course of inhibitory activity (Expt. 2.3.1)” value is “plateaued off”. The “course of inhibitory activity (Expt. 2.3.2)” value in experiment [3] (lower infecting doses (40 inclusion bodies in 30 fields)) is recorded as “plateaued off”. In addition, the “inhibition (Expt. 2.3.2)” value in experiment [3] (lower infecting doses (40 inclusion bodies in 30 fields), dextrin sulphate 1000 μg/ml) is recorded as “b) 80-90% inhibition”. Moreover, in experiment [3] (use of different infecting doses of Sa2f), the “Inhibition (Expt. 2.3)” value is “inhibition by dextrin”.

By IC50 is commonly meant the concentration that inhibits the measured activity by half.
